Measurements: ChEMBL document CHEMBL1201862, “PubChem BioAssay data set” (2004)
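96-well plates; 48 h exposure; 5 concentrations. Endpoints by linear interpolation between flanking doses. Not reached: highest tested concentration assigned. GI50 = concentration required for 50% inhibition of growth.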 Calls of active or inactive are those of the source. Rule as the data show it: active = GI50 up to about 1.1 µM and inactive = higher.

Tests used:
Experiment in all cases: inhibition of tumour cell growth, NCI panel, 48 h
[1] = system: SN12C
[2] = system: UACC-62
[3] = system: HCT-15
[4] = system: MDA-MB-435
[5] = system: NCI-H460
[6] = system: NCI-H23
[7] = system: MCF7
[8] = system: OVCAR-3
[9] = system: A549
[10] = system: NCI-H522
[11] = system: HCC 2998
[12] = system: SNB-19
[13] = system: SK-MEL-5
[14] = system: DU-145
[15] = system: A498
[16] = system: SF-295
[17] = system: NCI-H226
[18] = system: SF-539
[19] = system: M14
[20] = system: U-251

SMILES | GI50 [1] | GI50 [2] | GI50 [3] | GI50 [4] | GI50 [5] | GI50 [6] | GI50 [7] | GI50 [8] | GI50 [9] | GI50 [10] | GI50 [11] | GI50 [12] | GI50 [13] | GI50 [14] | GI50 [15] | GI50 [16] | GI50 [17] | GI50 [18] | GI50 [19] | GI50 [20]
O=C(C(Cl)=C(Nc1ccccc1)Nc1ccccc1)C(Cl)Cl | 25.5 µM (inactive) | 18.6 µM (inactive) | 11 µM | 10.6 µM (inactive) | 25.1 µM (inactive) | 41.4 µM (inactive) | 23.9 µM (inactive) | 23 µM (inactive) | 38.5 µM (inactive) | 19.7 µM (inactive) | 19 µM (inactive) | 26.2 µM (inactive) | 14.9 µM (inactive) | 51.2 µM (inactive) | 24.8 µM (inactive) | 34 µM (inactive) | 39.1 µM (inactive) | 24.6 µM (inactive) | 16.8 µM (inactive) | 
NCCNC(=S)S | 68.9 µM (inactive) | > 100 µM (inactive) | 58.2 µM | > 100 µM (inactive) |  | > 100 µM (inactive) | > 100 µM (inactive) | 52.7 µM (inactive) | > 100 µM (inactive) | 3.48 µM (inactive) | > 100 µM (inactive) | > 100 µM (inactive) | > 100 µM (inactive) | > 100 µM (inactive) | > 100 µM (inactive) | > 100 µM (inactive) | > 100 µM (inactive) |  | > 100 µM (inactive) | > 100 µM (inactive)
COCOc1ccc(C(=O)C(C)c2ccc(OCOC)cc2OCOC)c(O)c1 (configuration not stated) | > 100 µM (inactive) | > 100 µM (inactive) | 78.9 µM | 71.3 µM (inactive) | > 100 µM (inactive) | 60.8 µM (inactive) | 68.2 µM (inactive) |  | 97.3 µM (inactive) | 41.5 µM (inactive) | > 100 µM (inactive) | > 100 µM (inactive) | 37 µM (inactive) | > 100 µM (inactive) | > 100 µM (inactive) |  |  | > 100 µM (inactive) | > 100 µM (inactive) | > 100 µM (inactive)
Cc1nn(C(=O)Cc2ccccc2)c2c1C(c1ccc(/C=C/c3ccccc3)cc1)SC(=N)N2 (configuration not stated) | > 100 µM (inactive) | > 100 µM (inactive) | > 100 µM | > 100 µM (inactive) | > 100 µM (inactive) | > 100 µM (inactive) | > 100 µM (inactive) |  | > 100 µM (inactive) | > 100 µM (inactive) | > 100 µM (inactive) | > 100 µM (inactive) | > 100 µM (inactive) | > 100 µM (inactive) | > 100 µM (inactive) | > 100 µM (inactive) | > 100 µM (inactive) | > 100 µM (inactive) | > 100 µM (inactive) | 
CCCCC[C@H](O)[C@H](C)C=C1SCCCS1 | > 100 µM (inactive) | > 100 µM (inactive) | > 100 µM | > 100 µM (inactive) |  | > 100 µM (inactive) | > 100 µM (inactive) | > 100 µM (inactive) | > 100 µM (inactive) | > 100 µM (inactive) | > 100 µM (inactive) | > 100 µM (inactive) | > 100 µM (inactive) | > 100 µM (inactive) | > 100 µM (inactive) | > 100 µM (inactive) | > 100 µM (inactive) |  | > 100 µM (inactive) | > 100 µM (inactive)
COc1ccc(-c2nnc3n(Cc4ccccc4)c4ccccc4n3c2=O)cc1 | 55 µM (inactive) |  | > 100 µM | 4.76 µM (inactive) | 33.5 µM (inactive) | 31.3 µM (inactive) | 29.4 µM (inactive) |  | 45 µM (inactive) | 17.3 µM (inactive) | > 100 µM (inactive) | 23.2 µM (inactive) | 53.5 µM (inactive) | 59.4 µM (inactive) | 22.7 µM (inactive) | 15.9 µM (inactive) | 17.4 µM (inactive) | 13.2 µM (inactive) | 77.6 µM (inactive) | 19.9 µM (inactive)
CCCCCC#CCOC(=O)C(=[N+]=[N-])P(=O)(c1ccccc1)c1ccccc1 | > 10 µM (inactive) | > 10 µM (inactive) | > 10 µM | > 10 µM (inactive) | > 10 µM (inactive) | > 10 µM (inactive) | > 10 µM (inactive) | > 10 µM (inactive) | > 10 µM (inactive) |  | > 10 µM (inactive) | > 10 µM (inactive) | > 10 µM (inactive) | > 10 µM (inactive) | > 10 µM (inactive) | > 10 µM (inactive) | > 10 µM (inactive) | > 10 µM (inactive) | > 10 µM (inactive) | > 10 µM (inactive)
CC(C)(O)CO/N=C1\C(=C2\C(=O)Nc3ccccc32)Nc2ccccc21 | 12 µM (inactive) | 0.728 µM (active) | 0.324 µM | 0.794 µM (active) | 0.395 µM (active) | 1.18 µM (inactive) | 1.39 µM (inactive) | 1.32 µM (inactive) | 0.724 µM (active) | 1.87 µM (inactive) | 0.991 µM (active) | 4.24 µM (inactive) | 0.423 µM (active) | 0.476 µM (active) | 0.187 µM (active) | 2.52 µM (inactive) |  | 2.71 µM (inactive) | 0.474 µM (active) | 2.38 µM (inactive)
CC(C)C(Sc1nc(N)nc2nc[nH]c12)C(=O)O (configuration not stated) | > 100 µM (inactive) | > 100 µM (inactive) | > 100 µM | > 100 µM (inactive) | > 100 µM (inactive) | > 100 µM (inactive) | > 100 µM (inactive) | > 100 µM (inactive) | > 100 µM (inactive) | > 100 µM (inactive) | > 100 µM (inactive) | > 100 µM (inactive) | > 100 µM (inactive) | > 100 µM (inactive) | > 100 µM (inactive) | > 100 µM (inactive) | > 100 µM (inactive) |  | > 100 µM (inactive) | > 100 µM (inactive)
C#CCOCn1ccc(=O)[nH]c1=O | > 100 µM (inactive) | > 100 µM (inactive) | > 100 µM | > 100 µM (inactive) | > 100 µM (inactive) | > 100 µM (inactive) | > 100 µM (inactive) |  | > 100 µM (inactive) |  | > 100 µM (inactive) | > 100 µM (inactive) | > 100 µM (inactive) | > 100 µM (inactive) | > 100 µM (inactive) | > 100 µM (inactive) | > 100 µM (inactive) | > 100 µM (inactive) | > 100 µM (inactive) | > 100 µM (inactive)
O=C1CSC(=O)/C1=C\NNc1nc2ccccc2o1 | 29.6 µM (inactive) | 18 µM (inactive) | 12 µM | 65.9 µM (inactive) | 23.8 µM (inactive) | 24.5 µM (inactive) | 59.3 µM (inactive) | 17.4 µM (inactive) | 27.7 µM (inactive) |  | 54.1 µM (inactive) | 19.6 µM (inactive) | 14.4 µM (inactive) | 47.5 µM (inactive) | 25.5 µM (inactive) | 19.9 µM (inactive) | 36 µM (inactive) | 11.4 µM (inactive) | 19.3 µM (inactive) | 
Cc1nn(C)c2nc3ccc(Cl)cc3c(-c3ccccc3)c12 | > 100 µM (inactive) | > 100 µM (inactive) | > 100 µM | > 100 µM (inactive) | > 100 µM (inactive) | > 100 µM (inactive) | > 100 µM (inactive) | > 100 µM (inactive) | 79.6 µM (inactive) | > 100 µM (inactive) | > 100 µM (inactive) | > 100 µM (inactive) |  | > 100 µM (inactive) | > 100 µM (inactive) | > 100 µM (inactive) | > 100 µM (inactive) | > 100 µM (inactive) | > 100 µM (inactive) | > 100 µM (inactive)
CN(C)CCNC(=O)c1ccc2nc3c(nc2c1)C(=O)c1ccccc1-3 | 68.5 µM (inactive) | 46.5 µM (inactive) | 31.4 µM | 26 µM (inactive) | 18.5 µM (inactive) | 48.5 µM (inactive) | 27.9 µM (inactive) | 55 µM (inactive) | > 100 µM (inactive) | 30.9 µM (inactive) | 86.9 µM (inactive) | 77.3 µM (inactive) | 17.9 µM (inactive) | > 100 µM (inactive) | > 100 µM (inactive) | 65.6 µM (inactive) |  | 60.8 µM (inactive) | > 100 µM (inactive) | 24.2 µM (inactive)
C1=C(c2ccccc2)Nc2nnnn2C1c1ccccc1 (configuration not stated) | 71.3 µM (inactive) | 46.2 µM (inactive) | 15.3 µM | 11.1 µM (inactive) | 34 µM (inactive) | > 100 µM (inactive) | 7.66 µM (inactive) | > 100 µM (inactive) | 44.5 µM (inactive) | 23.1 µM (inactive) |  | 49.4 µM (inactive) | 40.7 µM (inactive) | 26.9 µM (inactive) | 37.2 µM (inactive) | 28.6 µM (inactive) | 47.4 µM (inactive) | 25.1 µM (inactive) | 23.9 µM (inactive) | 18.6 µM (inactive)
Cc1cccc(C[C@@]2(SCc3ccccc3)C(C)(C)[C@@H]3CC[C@@]2(C)C3)n1 | 16.3 µM (inactive) | 13.7 µM (inactive) | 13.8 µM | 24 µM (inactive) | 15.6 µM (inactive) | 13.9 µM (inactive) | 13.9 µM (inactive) | 15.6 µM (inactive) | 21.9 µM (inactive) | 14.3 µM (inactive) | 15.4 µM (inactive) | 16.3 µM (inactive) | 15.9 µM (inactive) | 16.9 µM (inactive) | 15.3 µM (inactive) | 14 µM (inactive) |  | 23.3 µM (inactive) | 14.7 µM (inactive) | 16.6 µM (inactive)
